Key:
αIIbβ3 integrin = molecular target: T1, αIIbβ3 integrin (Homo sapiens, UniProt P05106+P08514); experiment: Assay for the inhibition of αIIbβ3 integrin binding (fibrinogen as ligand, integrin captured from platelet lysate); settings: inhibition of specific binding of biotinylated fibrinogen to αIIbβ3 integrin from human platelet lysate
T1 construct: from tissue; host or cells: human platelets (Triton X-100 lysate)
Protocol: Experiment 2: Assay for the Inhibition of αIIbβ3 Integrin Binding
This experiment was carried out based on the method described in Thromb. Haemostasis, 75, 339 (1996), Blood, 93, 2559 (1999), using fibrinogen as a ligand. According to the method described in the above literatures, assay for the inhibition of αIIbβ3 integrin binding can be achieved by capturing αIIbβ3 integrin from platelet lysate with the use of an activated antibody against αIIbβ3 integrin.
Human platelets were isolated in a conventional manner. At 25° C., the isolated platelets were adjusted to a concentration of 1.25×10^9/ml with TBS+[50 mM Tris-HCl (pH 7.4), 150 mM NaCl, 2 mM CaCl2], and then ⅛ volume of TBS^+ containing 2 mM leupepsin and 10 mM PMSF was added and stirred gently. Nest, 1/9 volume of TBS+ containing 10% Triton X-100 was added and stirred gently. After standing on ice for 30 minutes, a platelet lysate was prepared from the mixture by discarding the insoluble fraction with centrifugation (10,000 g, 15 minutes).
Anti-mouse IgG goat antibody (Jackson Immunoresearch Laboratories, Inc., USA) was adjusted to a concentration of 5 μg/ml with sodium carbonate buffer (pH 9.6) and added to plates at 50 μl/well. The plate was left at 4° C. overnight for immobilization of the antibody. All subsequent steps were done at 25° C., and the procedure for each well was described hereafter.
The well was washed once with TBS^+, and then 200 μl of TBS^+ containing 5% BSA was added to the well and left for one hour for blocking. The well was washed with a reaction solution (TBS^+ containing 0.1% BSA and 0.05% Triton X-100) 4 times, and then 50 μl of anti-human αIIbβ3 integrin activated monoclonal antibody (TAKARA SHUZO CO., LTD, Japan, PT25-2 strain) adjusted to 5 μg/ml with the reaction solution was added to the well. After one hour reaction, the well was washed 4 times with the reaction solution, and 50 μl of the platelet lysate diluted 1:2 with the reaction solution was added to the well. Following 2 hours reaction, the well was washed 4 times with the reaction solution, and 50 μl of the reaction solution was added to the well. Subsequently, 25 μl of a test compound solution adjusted to each concentration with the reaction solution was added, and then mixed with 25 μl of biotinylated fibrinogen (Calbiochem, Germany) adjusted to 2 μg/ml with the reaction solution. The mixture was reacted for one hour. After washing 4 times with the reaction solution, 100 μl of alkaline phosphatase-labeled streptoavidin (Gibco BRL, USA) diluted 1:500 with the reaction solution was added to the well. Following 30 minutes reaction, the well was washed 4 times with the wash solution. Next, 50 μl of the NaDPH solution (Invitrogen, former company name: Gibco BRL, USA) was added and reacted for 20 minutes, and then 50 μl of an amplification solution containing diaphorase and alcohol dehydrogenase (Invitrogen, former company name: Gibco BRL, USA) was added. Color was developed for 20 minutes and the reaction was stopped by adding 50 μl of 0.5 M sulfuric acid.
(§1) The absorbance at 495 nm was measured with a plate reader to obtain a total binding. To obtain a nonspecific binding, EDTA adjusted to 20 mM with the reaction solution was added instead of the test compound solution. A specific binding was calculated by subtracting the nonspecific binding from the total binding.

αvβ3 integrin = αvβ3 integrin (Homo sapiens, UniProt P05106+P06756); experiment: Assay for the inhibition of αvβ3 integrin binding (vitronectin as ligand); set-up: purchased Chemicon International, Inc., USA; settings: inhibition of specific binding of biotinylated human vitronectin to immobilized αvβ3 integrin
Chain of αvβ3 integrin (P06756 31-889 limits assumed): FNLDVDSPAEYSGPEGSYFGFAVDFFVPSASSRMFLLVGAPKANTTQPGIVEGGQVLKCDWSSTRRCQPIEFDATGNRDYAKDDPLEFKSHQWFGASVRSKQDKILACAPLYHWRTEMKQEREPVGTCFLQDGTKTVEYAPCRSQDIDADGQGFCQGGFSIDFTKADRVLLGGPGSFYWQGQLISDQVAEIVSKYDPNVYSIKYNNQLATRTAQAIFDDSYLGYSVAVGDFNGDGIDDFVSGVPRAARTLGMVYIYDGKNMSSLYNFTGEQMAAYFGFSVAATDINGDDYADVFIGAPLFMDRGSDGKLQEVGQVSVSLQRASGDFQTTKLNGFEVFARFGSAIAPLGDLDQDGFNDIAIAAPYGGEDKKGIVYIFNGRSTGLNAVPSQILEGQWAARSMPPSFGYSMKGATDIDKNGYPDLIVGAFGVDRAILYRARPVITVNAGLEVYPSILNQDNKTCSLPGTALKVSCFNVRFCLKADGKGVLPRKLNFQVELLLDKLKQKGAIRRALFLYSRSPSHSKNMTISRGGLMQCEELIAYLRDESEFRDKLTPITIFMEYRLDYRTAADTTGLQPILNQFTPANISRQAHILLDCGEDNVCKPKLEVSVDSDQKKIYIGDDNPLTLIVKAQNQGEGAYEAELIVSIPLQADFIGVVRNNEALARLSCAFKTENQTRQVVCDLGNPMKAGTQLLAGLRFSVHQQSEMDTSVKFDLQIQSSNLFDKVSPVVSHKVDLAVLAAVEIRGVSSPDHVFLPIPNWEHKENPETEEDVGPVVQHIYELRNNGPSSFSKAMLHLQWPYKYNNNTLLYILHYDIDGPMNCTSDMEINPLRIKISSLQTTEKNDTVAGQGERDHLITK
Chain of αvβ3 integrin (P06756 891-1048 partner limits assumed): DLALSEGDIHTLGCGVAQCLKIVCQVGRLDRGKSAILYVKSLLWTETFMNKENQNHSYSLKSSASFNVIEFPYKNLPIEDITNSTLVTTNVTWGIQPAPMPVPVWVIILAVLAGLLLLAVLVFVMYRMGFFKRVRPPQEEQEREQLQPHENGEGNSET
Chain of αvβ3 integrin (P05106 27-788): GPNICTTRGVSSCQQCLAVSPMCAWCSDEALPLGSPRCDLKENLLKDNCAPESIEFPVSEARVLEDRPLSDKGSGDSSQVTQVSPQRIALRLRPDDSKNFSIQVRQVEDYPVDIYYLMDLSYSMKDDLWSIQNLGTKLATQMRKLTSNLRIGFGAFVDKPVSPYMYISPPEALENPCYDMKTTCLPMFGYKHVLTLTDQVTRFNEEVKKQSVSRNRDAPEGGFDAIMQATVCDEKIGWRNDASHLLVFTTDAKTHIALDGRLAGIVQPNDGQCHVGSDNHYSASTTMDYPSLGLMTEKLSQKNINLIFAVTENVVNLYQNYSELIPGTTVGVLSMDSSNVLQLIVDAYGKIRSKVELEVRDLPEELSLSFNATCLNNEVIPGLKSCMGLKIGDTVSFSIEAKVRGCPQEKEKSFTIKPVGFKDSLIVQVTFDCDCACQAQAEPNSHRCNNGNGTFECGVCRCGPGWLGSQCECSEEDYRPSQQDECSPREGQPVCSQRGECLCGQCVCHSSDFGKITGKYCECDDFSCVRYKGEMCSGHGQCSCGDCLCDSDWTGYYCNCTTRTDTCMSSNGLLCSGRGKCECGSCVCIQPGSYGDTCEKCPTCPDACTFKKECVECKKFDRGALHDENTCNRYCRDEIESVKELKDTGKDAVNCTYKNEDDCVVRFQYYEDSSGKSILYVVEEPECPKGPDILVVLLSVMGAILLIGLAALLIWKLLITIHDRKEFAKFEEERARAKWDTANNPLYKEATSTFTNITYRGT
Protocol: Experiment 1: Assay for the Inhibition of αvβ3 integrin binding
This experiment was carried out based on the method described in […].
Purified human αvβ3 integrin (Chemicon International, Inc., USA) was adjusted to a concentration of 1 μg/ml with TBS^++ [20 mM Tris-HCl (pH 7.4), 150 mM NaCl, 1 mM CaCl2, 1 mM MgCl2], and the diluted solution was added to plates (Labsystems, Finland) at 50 μl/well. The plate was left at 4° C. overnight for immobilization of the αvβ3 integrin. All subsequent steps were done at 25° C., and the procedure for each well was described hereafter.
The solution was discarded, and then 200 μl of TBS^++ containing 1% BSA (Wako Pure Chemical Industries, Ltd., Japan) was added to the well and left for one hour for blocking. The well was washed with a wash solution (TBS^++ containing 0.01% Tween 20) 4 times, and 50 μl of a reaction solution (TBS^++ containing 0.1% BSA and 0.01% Tween 20) was added to the well. Subsequently, 25 μl of a test compound solution adjusted to each concentration with the reaction solution was added, and then mixed with 25 μl of biotinylated (Amersham Pharmacia Biotech, UK) human vitronectin (Gibco BRL, USA) adjusted to 0.4 μg/ml with the reaction solution. The mixture was reacted for 2 hours. After washing 4 times with the wash solution, 100 μl of peroxidase-labeled streptoavidin (Amersham Pharmacia Biotech, UK) diluted 1:500 with the reaction solution was added to the well. Following 30 minutes reaction, the well was washed 4 times with the wash solution, and 100 μl of a TMB substrate solution (Bio-Rad Laboratories, USA) was added to the well. Color was developed for 20 minutes and the reaction was stopped by adding 100 μl of 0.5 M sulfuric acid.
as §1, with “450” for “495”, “reader (Molecular Devices, USA)” for “reader”

T1 sequence (P08514 32-887 limits assumed): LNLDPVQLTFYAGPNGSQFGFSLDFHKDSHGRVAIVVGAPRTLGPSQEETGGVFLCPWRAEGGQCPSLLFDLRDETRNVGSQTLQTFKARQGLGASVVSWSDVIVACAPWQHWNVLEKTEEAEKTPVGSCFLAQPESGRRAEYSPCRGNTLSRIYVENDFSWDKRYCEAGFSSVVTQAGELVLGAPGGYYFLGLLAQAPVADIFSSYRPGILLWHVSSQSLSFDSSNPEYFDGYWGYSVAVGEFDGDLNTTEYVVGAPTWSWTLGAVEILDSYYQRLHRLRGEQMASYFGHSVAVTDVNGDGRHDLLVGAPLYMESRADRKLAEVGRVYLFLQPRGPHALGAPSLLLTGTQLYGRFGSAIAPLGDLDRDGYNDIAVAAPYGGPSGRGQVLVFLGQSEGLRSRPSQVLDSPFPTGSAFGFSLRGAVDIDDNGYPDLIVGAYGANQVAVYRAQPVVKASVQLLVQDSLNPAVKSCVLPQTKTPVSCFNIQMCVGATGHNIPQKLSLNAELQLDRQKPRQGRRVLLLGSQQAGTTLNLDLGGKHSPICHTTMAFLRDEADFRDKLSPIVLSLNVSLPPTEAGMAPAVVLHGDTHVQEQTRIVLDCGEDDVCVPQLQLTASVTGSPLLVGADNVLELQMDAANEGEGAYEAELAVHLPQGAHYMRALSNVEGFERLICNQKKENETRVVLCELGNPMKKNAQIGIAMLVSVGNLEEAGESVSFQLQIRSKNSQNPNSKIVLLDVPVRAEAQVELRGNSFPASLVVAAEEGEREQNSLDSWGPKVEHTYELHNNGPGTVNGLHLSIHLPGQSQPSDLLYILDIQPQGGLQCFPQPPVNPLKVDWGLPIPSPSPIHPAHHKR
T1 sequence (P08514 891-1039 partner limits assumed): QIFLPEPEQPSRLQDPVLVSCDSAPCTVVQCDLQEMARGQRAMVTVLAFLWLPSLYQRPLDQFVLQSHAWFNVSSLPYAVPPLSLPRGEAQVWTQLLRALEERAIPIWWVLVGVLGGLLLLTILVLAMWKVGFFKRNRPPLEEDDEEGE
T1 sequence (P05106 27-788): as the sequence (P05106 27-788) above

Row | SMILES | IC50 (αIIbβ3 integrin) | IC50 (αvβ3 integrin)
1 | CCOC(=O)N[C@@H](CNC(=O)C1CCN(c2cccc(NC3=NCCCN3)c2)CC1)C(=O)O [Ex. 86, (2S)-2-ethoxycarbonylamino-3-[[1-[3-(1,4,5,6-tetrahydropyrimidin-2-yl)aminophenyl]piperidin-4-yl]carbonylamino]propanoic acid] | 380 nM | 0.094 nM
2 | CCCCOC(=O)N[C@@H](CNC(=O)C1CCN(c2cccc(NC3=NCCCN3)c2)CC1)C(=O)O [Ex. 87, (2S)-2-butoxycarbonylamino-3-[[1-[3-(1,4,5,6-tetrahydropyrimidin-2-yl)aminophenyl]piperidin-4-yl]carbonylamino]propanoic acid] | 110 nM | 0.1 nM
3 | CCCCCCOC(=O)N[C@@H](CNC(=O)C1CCN(c2cccc(NC3=NCCCN3)c2)CC1)C(=O)O [Ex. 88, (2S)-2-hexyloxycarbonylamino-3-[[1-[3-(1,4,5,6-tetrahydropyrimidin-2-yl)aminophenyl]piperidin-4-yl]carbonylamino]propanoic acid] | 26 nM | 0.051 nM
4 | CCCCCCCCOC(=O)N[C@@H](CNC(=O)C1CCN(c2cccc(NC3=NCCCN3)c2)CC1)C(=O)O [Ex. 89, (2S)-2-octyloxycarbonylamino-3-[[1-[3-(1,4,5,6-tetrahydropyrimidin-2-yl)aminophenyl]piperidin-4-yl]carbonylamino]propanoic acid] | 96 nM | 0.1 nM
5 | CCCCCCCCCCOC(=O)N[C@@H](CNC(=O)C1CCN(c2cccc(NC3=NCCCN3)c2)CC1)C(=O)O [Ex. 90, (2S)-2-decyloxycarbonylamino-3-[[1-[3-(1,4,5,6-tetrahydropyrimidin-2-yl)aminophenyl]piperidin-4-yl]carbonylamino]propanoic acid] | 260 nM | 0.23 nM
6 | CC(C)COC(=O)N[C@@H](CNC(=O)C1CCN(c2cccc(NC3=NCCCN3)c2)CC1)C(=O)O [Ex. 92, (2S)-2-isobutoxycarbonylamino-3-[[1-[3-(1,4,5,6-tetrahydropyrimidin-2-yl)aminophenyl]piperidin-4-yl]carbonylamino]propanoic acid] | 72 nM | 0.066 nM
7 | CC(C)(C)COC(=O)N[C@@H](CNC(=O)C1CCN(c2cccc(NC3=NCCCN3)c2)CC1)C(=O)O [Ex. 93, (2S)-2-neopentyloxycarbonylamino-3-[[1-[3-(1,4,5,6-tetrahydropyrimidin-2-yl)aminophenyl]piperidin-4-yl]carbonylamino]propanoic acid] | 150 nM | 0.2 nM
8 | COCCOC(=O)N[C@@H](CNC(=O)C1CCN(c2cccc(NC3=NCCCN3)c2)CC1)C(=O)O [Ex. 94, (2S)-2-(2-methoxyethoxycarbonylamino)-3-[[1-[3-(1,4,5,6-tetrahydropyrimidin-2-yl)aminophenyl]piperidin-4-yl]carbonylamino]-propanoic acid] | 60 nM | 0.21 nM
9 | C=CCOC(=O)N[C@@H](CNC(=O)C1CCN(c2cccc(NC3=NCCCN3)c2)CC1)C(=O)O [Ex. 96, (2S)-2-allyloxycarbonylamino-3-[[1-[3-(1,4,5,6-tetrahydropyrimidin-2-yl)aminophenyl]piperidin-4-yl]carbonylamino] propanoic acid] | 60 nM | 0.08 nM
10 | CCCCCCNC(=O)N[C@@H](CNC(=O)C1CCN(c2cccc(NC3=NCCCN3)c2)CC1)C(=O)O [Ex. 117, (2S)-2-hexylaminocarbonylamino-3-[[1-[3-(1,4,5,6-tetrahydropyrimidin-2-yl)aminophenyl]piperidin-4-yl]carbonylamino]propanoic acid] | 88 nM | 0.35 nM
11 | O=C(N[C@@H](CCC(=O)N1CCN(c2cccc(NC3=NCCN3)c2)CC1)C(=O)O)OCc1ccccc1 [Ex. 122] | 720 nM | 0.16 nM
12 | O=C(N[C@@H](CCC(=O)N1CCN(c2cccc(NC3=NCCCCN3)c2)CC1)C(=O)O)OCc1ccccc1 [Ex. 123] | 1600 nM | 0.056 nM
13 | O=C(N[C@@H](CCC(=O)N1CCN(c2cccc(NC3=NCC(F)CN3)c2)CC1)C(=O)O)OCc1ccccc1 (stereo partly drawn) [Ex. 124, (2S)-2-benzyloxycarbonylamino-5-[4-[3-(5-fluoro-1,4,5,6-tetrahydropyrimidin-2-yl)aminophenyl]piperazin-1-yl]-5-oxopentanoic acid] | 540 nM | 0.063 nM
14 | O=C(N[C@@H](CCC(=O)N1CCN(c2cccc(NC3=NCC(O)CN3)c2)CC1)C(=O)O)OCc1ccccc1 (some centres unmarked) [Ex. 125] | 340 nM | 0.15 nM
15 | CCCCCCOC(=O)N[C@@H](CCC(=O)N1CCN(c2cccc(NC3=NCC(F)CN3)c2)CC1)C(=O)O (stereo partly drawn) [Ex. 130, (2S)-2-hexyloxycarbonylamino-5-[4-[3-(5-fluoro-1,4,5,6-tetrahydropyrimidin-2-yl)aminophenyl]piperazin-1-yl]-5-oxopentanoic acid] | > 1000 nM | 0.058 nM
16 | CCCCCCOC(=O)N[C@@H](CCC(=O)N1CCN(c2cccc(NC3=NCC(O)CN3)c2)CC1)C(=O)O (some centres unmarked) [Ex. 131] | 57 nM | 0.3 nM
17 | CCCCCCCCCCOC(=O)N[C@@H](CCC(=O)N1CCN(c2cccc(NC3=NCC(C)(C)CN3)c2)CC1)C(=O)O [Ex. 132] | > 1000 nM | 1.7 nM
18 | CCCCCCCCCCOC(=O)N[C@@H](CCC(=O)N1CCN(c2cccc(NC3=NCC(F)CN3)c2)CC1)C(=O)O (some centres unmarked) [Ex. 133] | > 1000 nM | 0.26 nM
19 | CCCCCCCCCCOC(=O)N[C@@H](CCC(=O)N1CCN(c2cccc(NC3=NCC(O)CN3)c2)CC1)C(=O)O (some centres unmarked) [Ex. 134] | > 1000 nM | 0.64 nM
20 | CCCCCCCCCCOC(=O)N[C@@H](CCC(=O)N1CCN(c2cccc(NC3=NCC(C)CN3)c2)CC1)C(=O)O (some centres unmarked) [Ex. 135] | > 1000 nM | 0.74 nM
21 | CCCCCCOC(=O)N[C@@H](CCC(=O)N1CCN(c2cccc(NC3=NCCCN3)c2)CC1)C(=O)O [Ex. 137, (2S)-2-hexyloxycarbonylamino-5-[4-[3-(1,4,5,6-tetrahydropyrimidin-2-yl)aminophenyl]piperazin-1-yl]-5-oxopentanoic acid] | 880 nM | 0.28 nM
22 | Cc1cc(C)c(S(=O)(=O)N[C@@H](CCC(=O)N2CCN(c3cccc(NC4=NCCCN4)c3)CC2)C(=O)O)c(C)c1 [Ex. 140] | 30 nM | 0.22 nM
